Tests used:
Type in all cases: cell-based, human
[1] = tested on: prostate carcinoma cell lines (DU-145, PC-3, LNCaP); test: MTT viability assay; details: 48 h
Method: (§1) Cells were seeded in 96-well plates, pretreated with NAC (5 mM) or Tiron (1 mM) for 2 h and infected with Ad.mda-7. Forty eight hours later, viability was assessed by MTT assay. […] Cells were seeded in 96-well plates, infected with Ad.mda-7 and treated with As2O3 (10 μM) or NSC656240 (400 nM). Forty eight h later, viability was assessed by MTT assay. Panel C. […] After treatment, cells were stained using DCF-DA and analyzed using flow cytometry. […] After treatment, cells were washed and stained with Annexin V-FITC conjugate. Late apoptotic and necrotic cells were excluded using PI staining. Results are the mean of three independent experiments performed with triplicate samples±S.E.
[…] Cellular viability was assessed by MTT assay 48 h after infection (Panel A). Mitochondrial membrane potential (DiOC6(3) staining, Panel B) and apoptotic changes (Annexin V staining, Panel C) were assessed 18 h (LNCaP cells) and 24 h (DU-145, PC-3 and P69 cells) after infection.
MTT Viability Assays. This method was performed as described (Lebedeva et al., 2000, Cancer Research 60:6052-6060). […] At the indicated time points, medium was removed, and fresh medium containing 0.5 mg/ml MTT was added to each well. The cells were incubated at 37° C. for 4 h and then an equal volume of solubilization solution (0.01N HCl in 10% SDS) was added to each well and mixed thoroughly. The optical density from the plates was read on a BioRad Microplate Reader Model 550 at 595 nm.

[2] = tested on: prostate carcinoma cells; test: ROS production (DCF fluorescence, flow cytometry)
Method: as §1

[3] = tested on: pancreatic carcinoma cells; test: MTT viability assay
Method: MTT Viability Assays. Cell viability was assessed by MTT assays as described (Lebedeva et al., 2000, Cancer Research 60:6052-6060). Briefly, cells were seeded in 96-well tissue culture plates (1.5×10^3 cells per well) and treated with various agents. At the indicated times, medium was removed, and fresh medium containing 0.5 mg/ml MTT was added to each well. The cells were incubated at 37° C. for 4 h and then an equal volume of solubilization solution (0.01N HCl in 10% SDS) was added to each well and mixed thoroughly. The optical density from the plates was read on a BioRad Microplate Reader Model 550 at 595 nm.

[4] = tested on: pancreatic carcinoma cells; test: Apoptosis (annexin V exposure, hypodiploid A0 cells)
Excerpt: FIG. 39. Combined treatment of pancreatic carcinoma cells by NSC656240 and Ad.mda-7 increases levels of annexin V in pancreatic cancer cells irrespective of K-ras status.
FIG. 40. NAC administration prevents the apoptosis of pancreatic cancer cells induced by treatment of pancreatic carcinoma cells by NSC656240 or Ar2O3 and Ad.mda-7.
FIG. 41. Combined treatment of pancreatic carcinoma cells by NSC656240 or Ar2O3 and Ad.mda-7 causes apoptosis irrespective of K-ras status.
Annexin V Binding Assays. Cells were trypsinized, washed once with complete medium and stained with FITC-labeled Annexin-V (kit from Oncogene Research Products, Boston, Mass.) according to the manufacturer's instructions. Flow cytometry was performed immediately after staining.
Cell Cycle Analysis. Cells were trypsinized, washed 2× with PBS and fixed in 70% ethanol overnight at −20° C. Then cells were washed 2 times with PBS, and aliquots of 1×10^6 cells were resuspended in 1 ml of PBS containing 1 mg/ml of RNase A and 0.5 mg/ml of propidium iodide. After 30 min incubation, cells were analyzed by flow cytometry using a FACScan flow cytometer (Becton Dickinson, San Jose, Calif.).

[5] = tested on: pancreatic cancer cell lines; test: Western blotting of K-ras and MDA-7 protein
Excerpt: FIG. 43. MDA-7 expression in pancreatic cancer cell lines in the presence or absence of Ad.mda-7, Ad.K-rasAS, or NSC656243. The presence of MDA-7 in mutant K-ras cell lines requires expression of both mda-7 and the antisense K-ras construct, and is potentiated by NSC656243.
FIG. 45. The MDA-7 expression observed in the PANC-1 or BxPC-3 cell lines following administration of Ad.mda-7 in combination with either NSC656240 or Ar2O3 is abrogated by NAC administration.
Preparation of Cell Extracts and Western Blotting Analysis. Cells were washed 2× with cold PBS and lysed on ice for 30 min in […] of cold RIPA buffer [50 mM Tris-HCl (pH 8.0), 150 mM NaCl, 0.1% SDS, 1% NP40, and 0.5% sodium deoxycholate] with freshly added 0.1 mg/ml phenylmethylsulfonyl fluoride, 1 mM sodium orthovanadate, and 1 mg/ml aprotinin. After cell debris were removed by centrifugation at 14,000 g for 10 min at 4° C., protein concentrations were determined using the Bio-Rad protein assay system (Bio-Rad Laboratories, Richmond, Calif.). Aliquots of cell extracts containing […] of total protein were resolved in 12% SDS-PAGE and transferred to Immobilon-P PVDF membranes (Millipore Corp., Bedford, Mass.). Filters were blocked for 1 h at room temperature in Blotto A [5% nonfat milk powder in TBS-T: 10 mM Tris-HCl (pH 8.0), 150 mM NaCl, 0.05% Tween 20], and then incubated for 1 h at room temperature in Blotto A containing a 1:1000 dilution of rabbit anti MDA-7 polyclonal antibody. After washing in TBS-T buffer (3×5 min, RT), filters were incubated for 1 h at room temperature in Blotto A containing a 1:10,000 dilution of peroxidase conjugated anti-rabbit secondary antibody (Amersham, Arlington Heights, Ill.). After washing in TBS-T, ECL was performed according to the manufacturer's recommendation.

[6] = tested on: pancreatic carcinoma cells; test: ROS production (flow cytometry)
Method: FIG. 46. Combined treatment by NSC656240 or Ar2O3 and Ad.mda-7 causes overproduction of ROS in pancreatic carcinoma cells.
Assessment of ROS Production. To determine ROS production, cells were stained with 2.5 μM HE or 5 μM DCFH-DA in PBS for 30 min at 37° C. in the dark. Immediately after staining, cells were analyzed by flow cytometry (FACSscan, Becton-Dickinson, Mountain View, Calif.), and data were analyzed using CellQuest software, version 3.1 (Becton Dickinson). For inhibition experiments, NAC (Sigma) was added 2 h prior to infection with Ad.mda-7. In all cases, cells were gated to exclude cell debris.

[7] = tested on: pancreatic cancer cells stably transformed to express MDA-7; test: Apoptosis and cell death in cells stably expressing MDA-7
Excerpt: FIG. 49. Induction of apoptosis in pancreatic cancer cell lines (PANC-1) stably expressing MDA-7.
FIG. 50. Induction of apoptosis in pancreatic cancer cell lines (Mia PaCa-2) stably expressing MDA-7.
FIG. 51. Induction of apoptosis in pancreatic cancer cell lines (FM516 or BxPC-3) stably expressing MDA-7.

Row | Molecule | effect of antioxidant on cell death promoting activity of Ad.mda-7 ([1]; NAC 5 mM, Tiron 1 mM) | effect of NAC on Ad.mda-7-induced ROS generation ([2]; non-cytotoxic dose of NAC) | effect of N-acetyl-cysteine on death after combinational treatment [3] | effect of NAC on apoptosis after combination treatment [4] | effect of NAC on MDA-7 expression and secretion ([5]; both type of cells) | effect of NAC on ROS production [6] | effect of NAC on apoptosis and cell death [7] | effect of ROS-producing agent on cell death of Ad.mda-7-infected cells ([1]; As2O3 10 μM, NSC656240 400 nM) | ROS levels ([2]; treated with NSC656240 or As2O3) | cell death, combinational treatment with Ad.mda-7 ([3]; Ad.mda-7 100 p.f.u./cell) | apoptosis, combination treatment with Ad.mda-7 ([4]; annexin V exposure and A0 population) | MDA-7 protein expression and secretion, combined treatment with Ad.mda-7 ([5]; wt and mutated K-ras pancreatic cancer cell lines) | ROS production, combined treatment with Ad.mda-7 [6] | apoptosis and cell death [7]
1 | CC(=O)N[C@@H](CS)C(=O)O [NAC, N-acetyl-cysteine] | abrogated | suppressed Ad.mda-7-induced ROS generation | death can be prevented | prevents apoptosis | abrogates MDA-7 expression and secretion | blocked ROS production | blocks these processes | – | – | – | – | – | – | –
2 | arsenic trioxide | – | – | – | – | – | – | – | potentiated cell death | ROS levels increased proportionally | caused death of these cells irrespective of their K-ras status | caused apoptosis in pancreatic carcinoma cells independently of their K-ras status | leads to MDA-7 protein expression and secretion | Caused ROS overproduction | caused apoptosis and cell death
